Like-named read-outs stand apart in the source and are kept apart here.
Key:
[1] = tested on: type 2 diabetes mellitus adult subjects; experiment: Clinical study in healthy and type 2 diabetes mellitus subjects (SAD, food effect, MAD; Example 111); type: in vivo, human
Experimental: In Experimental Phase 1 (SAD cohorts), 40 healthy adult subjects were randomized into 4 dose escalating cohorts of 10. In each cohort, subjects were randomized at 7:3 (active and placebo) in sequential order. Each cohort was composed of 2 sentinel subjects randomized at 1:1 (active and placebo), followed by 8 additional subjects randomized at 3:1 (active and placebo). Doses were 100 mg, 200 mg, 400 mg, and 600 mg.
In Experimental Phase 1 (3-period crossover, food effect study), each cohort of 12 healthy adult subjects was randomized at 1:1:1:1:1:1 in a 3-period crossover study with 6 treatment sequences.
In Experimental Phase 2 (MAD cohorts), 1 cohort of 16 healthy adult subjects was randomized at 3:1 (active and placebo), and 7 cohorts of type 2 diabetes mellitus adult subjects were randomized at 5:1 (active and placebo) to obtain safety and efficacy data to identify the potential optimal biological dose (OBD) and a recommended Phase 2 dose (RP2D). Doses were 100 mg, 200 mg, 400 mg, and 600 mg.

[2] = tested on: CLL samples isolated from patients; experiment: Ex vivo CLL patient samples, antileukemic activity; type: cell-based, human; settings: CLL ex vivo patient samples, 1 μM exposure
[3] = tested on: patient-derived DLBCL Triple Hit Lymphoma (THL) and MYC-amplified PDX samples; experiment: Ex vivo DLBCL PDX samples (THL, MYC-amplified), six days; type: cell-based, human; settings: THL/R-CHOP-refractory and MYC amplification/R-EPOCH refractory profiles
Experimental: Compound A was tested against a THL cell line (VAL), and a DEL cell line (U2932). An expanded panel of DHL cell lines were tested for sensitivity to Compound A. Ex vivo patient samples of THL and MYC-amplified DLBCL were tested with Compound A. Sensitivity of THL and MYC-driven DLBCL in both in vitro and ex vivo models were compared with clinical reversible menin inhibitors. Compound A was tested against a panel of MM cell lines and ex vivo MM patient samples of p53del, 13qdel, and relapsed/refractory cases.
DLBCL cell line TOLEDO was cultured in the presence of Compound A or clinical reversible menin inhibitors for six and fourteen hours. Menin protein expression was reduced up to 60% at 1 μM by Compound A after fourteen hours compared to clinical reversible inhibitors at <20% at similar concentrations. Menin protein expression was measured by the Wes system and analyzed using the Compass software (automated western blotting, Protein Simple). Signal was normalized to GAPDH and referenced to DMSO control (FIG. 171E). DLBCL and MM cell lines were cultured with Compound A, bortezomib (PS-341), or DMSO for four days and cell proliferation was measured by Cell Titer Glo. Ex vivo studies of DLBCL and MM models were conducted by measurement of cell proliferation (Cell Titer Glo) after six days of treatment with Compound A, PS-341, or DMSO control.

[4] = tested on: KRAS mutated cell lines (CRC, NSCLC, pancreatic); experiment: KRAS mutant cell line proliferation (CellTiter-Glo, four days); type: cell-based, human; settings: for GI50: Homo sapiens
Experimental: The inhibitory effect on cell proliferation was investigated in the human pancreas KRAS mutated cell lines MIA PaCa-2, HuP-T4, HPAF-II, human lung KRAS mutated cell line NCI-H358, and human colon KRAS mutated cell lines SW837, SW60, and NCI-H747. […] Cells were grown by adhering to culture flasks, and maintained at 70%-80% confluency.
ATP is present in all metabolically active cells and is considered as a marker for viable cells. […] The cell proliferation assay was performed using a 96-well plate format.
Eight concentrations of test compound were assessed in duplicate for each experimental run. 100% cell proliferation is represented by the untreated cells (0.2% DMSO).
200 μL of cell suspension were added to each well of a 96-well plate.
Cell viability was measured using CellTiterGlo. […] Cell viability was measured using CellTiter Glo.

[5] = tested on: human pancreatic islet beta cells; experiment: Beta cell proliferation in human islet microtissues (Examples 107, 110); type: cell-based
Experimental: Human islet microtissues were aggregated for 5 days and then released into ultra-low attachment plates. Half of the plates were maintained in standard culture medium (5.5 mM glucose), and half were cultured in high-glucose culture medium (GTX, 8 mM glucose) starting at Day 6, for the duration of the whole experiment. Starting on Day 9 (after 3 days of GTX pre-treatment for the relevant plates), dosing with compounds was initiated, using a Tecan D300e Digital Dispenser. DMSO was normalized by volume across all wells. Media were exchanged and compounds were redosed every 2-3 days throughout the experiment. Compound dosing was randomized; to avoid compound cross-contamination between wells, all medium exchanges were performed using 96-well deep well plates with pipette tip exchange.
FIG. 38 provides human pancreatic islet beta cell proliferation on Day 14 and Day 21. In FIG. 38, A is ATP content; B is proliferating beta cell fraction; and C is beta cell fraction. Upper graphs are standard media, and lower graphs are high glucose media. Data represents mean+−SEM of 1 donor with n=4-10 technical replicates. One-way ANOVA with Dunnet's posthoc test to DMSO control. * p<0.05; ** p<0.01; and *** p<0.001.
The ability of menin-MLL inhibitors to induce beta-cell (β-cell) proliferation is tested on human islet microtissue preparations (InSphero). Briefly, human islet microtissues are produced by enzymatic dissociation of the primary islet cells followed by controlled scaffold-free hanging-drop-based self-reaggregation of the islet cells (Misun et al., 2020, Adv. Biosyst. 2020, 4, 1900291). The process helps eliminate contaminating exocrine cells, while enabling homogenous and native-like distribution of endocrine cells within each islet microtissue. […]
Effects of the compound on beta cell function and proliferation were monitored following culturing of the islets in the presence or absence of compound for 1, 2 or 3 weeks. Proliferation of beta cells and is monitored via immunofluorescence staining for appropriate markers. […]

C=CC(=O)N[C@@H]1CCCN(Cc2ccnc(C(=O)Nc3ccc(-c4cc5c(N6CCOCC6)ncnc5[nH]4)cc3)c2)C1 [Compound A, N-[4-[4-(4-morpholinyl)-7H-pyrrolo[2,3-d]pyrimidin-6-yl]phenyl]-4-[[3(R)-[(1-oxo-2-propen-1-yl)amino]-1-piperidinyl]methyl]-2-pyridinecarboxamide]
episodes of symptomatic hypoglycemia ([1]; human patients): No episodes
severe or serious TEAEs ([1]; human subjects): No severe or serious TEAEs
safety profile ([1]; human subjects, 4 weeks of treatment): well-tolerated
cell lethality [2]: > 98%
growth inhibition of ex vivo patient samples [3]: complete growth inhibition
GI50 ([4]; column 1: KRAS G12C, NSCLC (8), read-out: KRAS G12C GI50): 360 to 570 nM
GI50 ([4]; column 5: RAS WT, Pancreatic (4), read-out: RAS WT GI50): 430 to 830 nM
GI50 ([4]; column 8: KRAS G12D, Pancreatic (1) (second set of heads), read-out: KRAS G12D GI50): 370 to 570 nM
growth inhibition of KRAS-mutated cell lines compared to a known KRAS therapeutic ([4]; all cancer cell types tested): significantly greater growth inhibition
inhibition of growth ([4]; most of fourteen CRC, NSCLC and pancreatic KRAS mutated cell lines, four-day treatment): > 90%
beta-cell proliferation ([5]; glucose stress condition (8 mM glucose)): dose dependent increase
proliferating beta cell fraction ([5]; human islet microtissues, Day 14 and Day 21, compared to control): induced human pancreatic islet beta cells substantially
beta-cell proliferation ([5]; standard glucose conditions (5.5 mM glucose)): not under standard glucose conditions

Reference: patent publication US20260232681A1, “CRYSTALLINE FORMS OF N-[4-[4-(4-MORPHOLINYL)-7H-PYRROLO[2,3-D]PYRIMIDIN-6- YL]PHENYL]-4-[[3(R)-[(L-OXO-2-PROPEN-L-YL)AMINO]-L-PIPERIDINYL]METHYL]-2-PYRIDINECARBOXAMIDE AS A COVALENT INHIBITOR OF MENIN-MLL INTERACTION” (BIOMEA FUSION, INC., priority 2023, published 2026)
